These results are taken from patent US8901305B2, “Aryl lactam kinase inhibitors” (Bristol-Myers Squibb Company, priority 2012, dated 2014).

Test [1] addresses T1, AAK1 (full length human) with AP2M1 in HEK293F cells (Homo sapiens, UniProt Q2M2I8).
T1 construct: expressed in transfected cells; host or cells: HEK293F
The test is described as follows: HEK281 cell-based assay (phospho-mu2 Western blot in transfected HEK293F cells). The following applies: 3 hours, inhibition of mu2 phosphorylation. The method, then: HEK293F cells were cultured in media containing DMEM (Gibco, cat. #11965), 10% FBS (SAFC Biosciences, cat. #12103C), 1×GPS (glutamine, penicillin and streptomycin). On day one, cells were plated on a 10 cm dish so that they are ˜80% confluent at time of transfection. Roughly 12 million cells were in a 10 cm dish at time of transfection. On day two, each dish was transfected with 48 ug DNA and 144 ul Lipofectamine 2000 (Invitrogen, cat. #11668-019). The DNA was comprised of a mixture (per 10 cm dish) containing 3 ug AAK1/HA/pIRES (full length human, NCBI accession no. NP_055726.2), 45 μg Flag/AP2MI/pcDNA (full length human), and 1.5 ml OPTI-MEM. The Lipofectamine 2000 is made up of a mixture (per 10 cm dish) containing 144 μl Lipofectamine 2000 and 1.5 ml OPTI-MEM. Each mixture was transferred to individual 15 ml tubes and incubated at RT for 5 minutes, and then the two mixes were combined and incubated at RT for 20 minutes. Growth media was then aspirated from each 10 cm plate and replaced with 10 ml of DMEM+10% FBS (no GPS). Finally, 3 ml DNA/Lipofectamine mix was added to each 10 cm dish and mix gently followed by incubate of plate overnight at 37° C. and 5% CO2.
On day three, compounds were diluted in 100% DMSO at 1000× final concentration, followed by 3-fold serial dilutions for a total of 5 concentrations tested. Four compounds were tested per 10 cm dish. One ul of each compound dilution was then pipetted into a deep-well, 96-well plate, followed by addition of 500 μl DMEM+0.5% FBS into each well for a 2× final concentration of each compound. Cells were resuspended in a 10 cm dish by simple pipetting (HEK293 cells come off the plate that easy at this point) and then transferred to a 50 ml conical tube and pelleted by centrifugation at 1000 rpm for 5 min. Cell pellets were then resuspended in 2.75 ml DMEM+0.5% FBS per 10 cm dish and 100 μl of cell suspension transferred into each well of 96-well TC plate. Finally, 100 μl of 2× compound diluted in DMEM+0.5% FBS was then added into wells containing cell suspension for a 1× final concentration. Plates were then incubated at 37° C. and 5% CO2 for 3 hours followed by transferring of cell suspensions from each well into 12-tube PCR strips. The PCR strips were spun in a tip rack at 1000 rpm for 5 minutes to pellet cells and media was then removed by pipetting without disturbing the cell pellet.
To prepare for Western Blot analysis, cell pellets were resuspend in 40 ul 1×LDS-PAGE sample buffer (Invitrogen, cat. # NP0008)+2× Halt phosphatase and protease inhibitor cocktail (Thermo Scientific, cat. #1861284), followed by sonicating each with microtip sonicator set at 5 for 8-10 seconds. Five ul of 10× NuPage Sample Reducing Agent (with […]) was to each sample followed by heat denaturing at 70 C for 10 min on PCR machine. A total of 10 μl per sample was loaded into each lane of a 4-20% Tris-Glycine Criterion 26-well gel (Biorad, cat. #345-0034) for the phospho-mu2 blot and 10 μl per lane in a 4-12% Bis-Tris (+MES buffer) NuPAGE 26-well gel (Invitrogen, cat. # WG1403BX10) for the mu2 blot. For controls, 2 ng of phospho-mu2 or 20 ng mu2/Flag proteins were loaded in the last well of each gel. After SDS-PAGE, samples on each gel were transferred to PVDF membrane using an iBlot and membranes were blocked for one hour in TBST+5% milk, followed by wash 3× for 5-10 min with TBST. Criterion gels were probed with rabbit anti-phospho-mu2 (1:5000; a rabbit polyclonal antibody produced by New England Peptide and affinity purified at Lexicon) in TBST+5% BSA, whereas, NuPAGE gels were probed with mouse anti-Flag (1:500; Sigma, cat. # F1804) in TBST+5% milk, and these primary antibodies were incubated overnight at 4° C. on a rocker. […]
A general note: In western blotting, separated proteins are transferred to a membrane and probed.

The target in the next test is T2, GST-Xa-hAAK1 (Homo sapiens, UniProt Q2M2I8).
T2 construct: made in house
The test is described as follows: AAK1 kinase assay. The following applies: ATP 22 μM, 3 hours at room temperature. The test is classed as biochemical. The method, then:
The assays were performed in U-bottom 384-well plates. […] The reactions were initiated by the combination of bacterially expressed, GST-Xa-hAAK1 with substrates and test compounds. The reactions were incubated at room temperature for 3 hours and terminated by adding 60 μl of 35 mM EDTA buffer to each sample. The reactions were analyzed on the Caliper LabChip 3000 (Caliper, Hopkinton, Mass.) by electrophoretic separation of the fluorescent substrate and phosphorylated product. […] Compounds were dissolved at 10 mM in dimethylsulfoxide (DMSO) and evaluated at eleven concentrations. IC50 values were derived by non-linear regression analysis.

T1 sequence (Q2M2I8 whole entry): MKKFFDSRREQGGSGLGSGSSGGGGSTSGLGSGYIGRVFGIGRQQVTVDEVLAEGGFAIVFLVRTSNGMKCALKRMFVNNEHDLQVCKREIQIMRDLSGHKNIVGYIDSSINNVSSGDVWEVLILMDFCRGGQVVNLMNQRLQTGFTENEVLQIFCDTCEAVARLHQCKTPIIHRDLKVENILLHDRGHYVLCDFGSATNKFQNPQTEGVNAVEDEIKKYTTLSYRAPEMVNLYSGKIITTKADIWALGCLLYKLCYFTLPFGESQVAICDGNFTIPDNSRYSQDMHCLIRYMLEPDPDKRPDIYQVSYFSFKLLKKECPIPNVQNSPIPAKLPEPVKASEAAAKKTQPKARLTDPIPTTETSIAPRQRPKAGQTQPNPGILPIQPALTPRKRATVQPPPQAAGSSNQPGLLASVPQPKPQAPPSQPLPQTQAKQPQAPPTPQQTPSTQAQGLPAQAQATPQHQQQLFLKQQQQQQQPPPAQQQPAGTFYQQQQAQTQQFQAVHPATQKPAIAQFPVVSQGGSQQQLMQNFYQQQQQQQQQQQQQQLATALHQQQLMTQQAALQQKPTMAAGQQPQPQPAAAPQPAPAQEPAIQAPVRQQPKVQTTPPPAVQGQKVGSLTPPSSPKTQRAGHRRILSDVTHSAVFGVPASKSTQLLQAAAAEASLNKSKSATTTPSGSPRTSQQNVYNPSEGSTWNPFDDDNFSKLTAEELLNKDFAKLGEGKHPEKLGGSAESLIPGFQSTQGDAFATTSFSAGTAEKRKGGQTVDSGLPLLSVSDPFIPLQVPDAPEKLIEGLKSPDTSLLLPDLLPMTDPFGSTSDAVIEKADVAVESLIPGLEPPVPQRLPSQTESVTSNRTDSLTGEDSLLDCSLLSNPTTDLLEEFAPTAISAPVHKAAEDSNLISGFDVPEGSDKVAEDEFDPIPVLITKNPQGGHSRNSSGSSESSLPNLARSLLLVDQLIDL
T2 sequence (Q2M2I8 whole entry): as above

As a reminder, the IC50 is the point on the concentration scale where inhibition reaches its midpoint. In the case of `CC(C)CC(C)(N)COc1ccc2c3ccncc3c(=O)n(C)c2c1` (single isomer, unassigned) [Example 58, 8-((2-amino-2,4-dimethylpentyl)oxy)-6-methylbenzo[c][2,7]naphthyridin-5(6H)-one], the IC50 in test [1] (given as IC50 range) was 10 to 100 nM; at GST-Xa-hAAK1, 11 nM.

On to `CC(C)CC(C)(N)COc1ccc2c3ccncc3c(=O)n(C)c2c1` (single isomer, unassigned) [Example 59, 8-((2-amino-2,4-dimethylpentyl)oxy)-6-methylbenzo[c][2,7]naphthyridin-5(6H)-one], for which the IC50 fell in the range of 10 to 100 nM in test [1] (given as IC50 range) and 1 to 10 nM at GST-Xa-hAAK1 (given as IC50 range).

Turning to `Cc1nccc2c1c(=O)n(C)c1cc(OC[C@@H](N)CC(C)C(F)(F)F)ccc21` (single isomer, unassigned) [Example 88], the IC50 in test [1] (given as IC50 range) was 10 to 100 nM; on GST-Xa-hAAK1 (given as IC50 range), 1 to 10 nM.

Turning to `CC(C)C[C@H](N)COc1ccc2c(c1)[nH]c(=O)c1cnccc12` [Example 1, (S)-8-(2-amino-4-methylpentyloxy)benzo[c][2,7]naphthyridin-5(6H)-one], the IC50 was 14 nM in test [1] and 5.7 nM at GST-Xa-hAAK1.

In the case of `CC(C)C[C@H](N)COc1ccc2c3ccncc3c(=O)n(C)c2c1` [Example 2, (S)-8-((2-amino-4-methylpentyl)oxy)-6-methylbenzo[c][2,7]naphthyridin-5(6H)-one], the half-inhibitory concentration (IC50) in test [1] is 7 nM; on GST-Xa-hAAK1 (given as IC50 range), 1 to 10 nM.

For `CC(C)C[C@H](N)COc1cc2c(cc1Br)c1ccncc1c(=O)n2C` [Example 3, (S)-8-((2-amino-4-methylpentyl)oxy)-9-bromo-6-methylbenzo[c][2,7]naphthyridin-5(6H)-one], the IC50 in test [1] worked out at 1.6 nM; on GST-Xa-hAAK1 it was 2.7 nM.

Turning to `CC(C)C[C@H](N)COc1cc2c(cc1C1CC1)c1ccncc1c(=O)n2C` [Example 6, (S)-8-((2-amino-4-methylpentyl)oxy)-9-cyclopropyl-6-methylbenzo[c][2,7]naphthyridin-5(6H)-one], the IC50 in test [1] was 2.1 nM; at GST-Xa-hAAK1 (given as IC50 range), 1 to 10 nM.

On to `C=CCn1c(=O)c2cnccc2c2ccc(OC[C@@H](N)CC(C)C)cc21` [Example 9, (S)-6-allyl-8-((2-amino-4-methylpentyl)oxy)benzo[c][2,7]naphthyridin-5(6H)-one], for which the results for the IC50 (in test [1]; on GST-Xa-hAAK1) were 24 nM and 9.7 nM, respectively.

In the case of `CC(C)C[C@H](N)COc1cc2c(cc1F)c1ccncc1c(=O)n2C` [Example 14, (S)-8-((2-amino-4-methylpentyl)oxy)-9-fluoro-6-methylbenzo[c][2,7]naphthyridin-5(6H)-one], the IC50 in test [1] (given as IC50 range) is 1 to 10 nM; at GST-Xa-hAAK1, 7 nM.

As to `Cn1c(=O)c2cnccc2c2ccc(OCC(N)CCC(F)(F)F)cc21` (centres unmarked) [Example 15, 8-(2-amino-5,5,5-trifluoropentyloxy)-6-methylbenzo[c][2,7]naphthyridin-5(6H)-one], the IC50 (in test [1] (given as IC50 range); on GST-Xa-hAAK1 (given as IC50 range)) was 10 to 100 nM each time.

`Cc1nccc2c1c(=O)n(C)c1cc(OC[C@@H](N)CC(C)C)ccc21` [Example 16, (S)-8-((2-amino-4-methylpentyl)oxy)-4,6-dimethylbenzo[c][2,7]naphthyridin-5(6H)-one]: the IC50 (in test [1] (given as IC50 range); at GST-Xa-hAAK1 (given as IC50 range)) was 10 to 100 nM each time.

As for `CC(C)C[C@H](N)COc1ccc2c3ccnc(N)c3c(=O)n(C)c2c1` [Example 17, (S)-4-amino-8-(2-amino-4-methylpentyloxy)-6-methylbenzo[c][2,7]naphthyridin-5(6H)-one], the IC50 was 1 to 10 nM in test [1] (given as IC50 range) and 3 nM at GST-Xa-hAAK1.

As to `Cc1nccc2c1c(=O)n(C)c1cc(OC[C@H](N)CC(C)C)ccc21` [Example 19, (R)-8-((2-amino-4-methylpentyl)oxy)-4,6-dimethylbenzo[c][2,7]naphthyridin-5(6H)-one], the IC50 (in test [1] (given as IC50 range); at GST-Xa-hAAK1 (given as IC50 range)) was 10 to 100 nM throughout.

Take `Cc1nccc2c1c(=O)n(C)c1cc(OC[C@H](N)CC(C)C)c(Cl)cc21` [Example 20, (R)-8-((2-amino-4-methylpentyl)oxy)-9-chloro-4,6-dimethylbenzo[c][2,7]naphthyridin-5(6H)-one]: the IC50 (in test [1] (given as IC50 range); on GST-Xa-hAAK1 (given as IC50 range)) was 1 to 10 nM in each case.

As for `Cc1nccc2c1c(=O)n(C)c1cc(OC[C@@H](N)CC3CC3)c(Cl)cc21` [Example 23, (S)-8-(2-amino-3-cyclopropylpropoxy)-9-chloro-4,6-dimethylbenzo[c][2,7]naphthyridin-5(6H)-one], the IC50 was 1 to 10 nM in test [1] (given as IC50 range) and 0.12 nM on GST-Xa-hAAK1.

In the case of `Cc1nccc2c1c(=O)n(C)c1cc(OC[C@@H](N)CC3CCC3)c(Cl)cc21` [Example 24, (S)-8-(2-amino-3-cyclobutylpropoxy)-9-chloro-4,6-dimethylbenzo[c][2,7]naphthyridin-5(6H)-one], the IC50 (in test [1] (given as IC50 range); at GST-Xa-hAAK1 (given as IC50 range)) was 1 to 10 nM throughout.

As for `Cc1cc2c3ccnc(C)c3c(=O)n(C)c2cc1OC[C@@H](N)CC1CC1` [Example 25, (S)-8-(2-amino-3-cyclopropylpropoxy)-4,6,9-trimethylbenzo[c][2,7]naphthyridin-5(6H)-one], the IC50 in test [1] (given as IC50 range) is 1 to 10 nM; at GST-Xa-hAAK1, 0.55 nM.

Consider `Cc1cc2c3ccnc(C)c3c(=O)n(C)c2cc1OC[C@@H](N)CC1CCC1` [Example 26, (S)-8-(2-amino-3-cyclobutylpropoxy)-4,6,9-trimethylbenzo[c][2,7]naphthyridin-5(6H)-one], for which the IC50 in test [1] (given as IC50 range) is 1 to 10 nM; at GST-Xa-hAAK1, 2.9 nM.

Take `Cc1nccc2c1c(=O)n(C)c1cc(OCC(C)(N)CC(C)C)ccc21` (centres unmarked) [Example 32, 8-((2-amino-2,4-dimethylpentyl)oxy)-4,6-dimethylbenzo[c][2,7]naphthyridin-5(6H)-one]: the results for the IC50 (in test [1] (given as IC50 range); at GST-Xa-hAAK1) were 10 to 100 nM and 3.9 nM, respectively.

Regarding `Cc1nccc2c1c(=O)n(C)c1cc(OCC(C)(N)CC(C)C)c(Cl)cc21` (centres unmarked) [Example 41, 8-((2-amino-2,4-dimethylpentyl)oxy)-9-chloro-4,6-dimethylbenzo[c][2,7]naphthyridin-5(6H)-one], the IC50 worked out at 3.3 nM in test [1] and 0.64 nM on GST-Xa-hAAK1.

In the case of `CCc1cc2c3ccncc3c(=O)n(C)c2cc1OC[C@@H](N)CC(C)C` [Example 46, (S)-8-(2-amino-4-methylpentyloxy)-9-ethyl-6-methylbenzo[c][2,7]naphthyridin-5(6H)-one], the IC50 in test [1] was 3.1 nM; at GST-Xa-hAAK1 (given as IC50 range), 1 to 10 nM.

In the case of `CC(C)C[C@H](N)COc1cc2c(cc1C(C)C)c1ccncc1c(=O)n2C` [Example 47, (S)-8-(2-amino-4-methylpentyloxy)-9-isopropyl-6-methylbenzo[c][2,7]naphthyridin-5(6H)-one], the values for the IC50 (in test [1] (given as IC50 range); at GST-Xa-hAAK1) were 10 to 100 nM and 4.5 nM, respectively.
